Laboratory results taken from PMC10369073, “Production, identification, in silico analysis, and cytoprotection on H2O2-induced HUVECs of novel angiotensin-I-converting enzyme inhibitory peptides from Skipjack tuna roes” (Frontiers in Nutrition, 2023).
Ends that are not written are not given here. Peptide text beside a SMILES is read from it.

Experiments:
H2O2-induced HUVECs [1] = test: Viability of H2O2-induced HUVECs (oxidative damage model); assay type: cell-based, human; details: for cell viability of H2O2-induced HUVECs: 200 μM pretreatment 24 h, then 300 μM H2O2 24 h, model group 50.31 ± 2.19%, mean ± SD, n = 3, SD
Description: (§1) The viability of HUVECs treated by TRP3, TRP6, TRP9, and TRP12 was determined using MTT method. HUVECs were seeded in the 96-well plates, cultured for 24 h, and treated with ACEi peptides (100, 200, and 300 μM) at 37° C for 24 h. MTT (final content of 2 mg/mL) was added into cell culture. After 4 h, DMSO was added into each well and monitored at 490 nm. The cell viability (% control) was calculated.
The oxidative damage model of HUVECs was established according to the previous method ([50]). HUVECs were seeded in the 96-well plates, cultured for 24 h, and treated with […] H2O2 at 37°C.
(§2) The HUVECs were cultured for 24 h in a 96-well plate. Subsequently, the supernatant was aspirated and 20 μL of GSH (200 μM) and ACEi peptides (100 or 200 μM) were added in the protection groups, respectively. After 24 h, ACEi peptides were removed and H2O2 with the final concentration of 300 μM was added into the damage and protection groups for incubating 24 h.

H2O2-induced HUVECs [2] = test: NO production in H2O2-induced HUVECs (assay kit); assay type: cell-based, human; details: 200 μM pretreatment, 300 μM H2O2, model 15.54 ± 0.68 μM, mean ± SD, n = 3
Description: as §2
(§3) The level of ROS was determined using DCFH2-DA assay and expressed as % control ([50]). The levels of SOD (U/mgprot), GSH-Px (U/mgprot), NO (μmol/L), and MDA (nmol/mgprot) were measured using assay kits according to manufacturer’ protocols.

H2O2-induced HUVECs [3] = test: MDA content in H2O2-induced HUVECs (assay kit); assay type: cell-based, human; details: 200 μM pretreatment, 300 μM H2O2, model 27.94 ± 1.06, mean ± SD, n = 3
Description: as §2, §3

H2O2-induced HUVECs [4] = test: Apoptosis rate of H2O2-induced HUVECs, Hoechst 33342; assay type: cell-based, human; details: 200 μM pretreatment, 300 μM H2O2, model 214.03 ± 7.11% control, mean ± SD, n = 3
Description: as §2
Cell treatments with ACEi peptides, GSH, and H2O2 were according to the above method ([50]). The morphology of HUVECs was observed and photographed using an inverted microscope (Nikon Corporation, Kyoto, Japan). The percentage of apoptotic HUVECs was analyzed using previous methods ([17], [50]).

ACE = target: T1, ACE (Oryctolagus cuniculus, UniProt P12822); test: ACE inhibitory (ACEi) activity, FAPGG substrate, hippuric acid by HPLC at 228 nm; assay type: biochemical; details: at 1.5 mg/mL, mean ± SD, n = 3
T1 sequence (P12822 34-1310): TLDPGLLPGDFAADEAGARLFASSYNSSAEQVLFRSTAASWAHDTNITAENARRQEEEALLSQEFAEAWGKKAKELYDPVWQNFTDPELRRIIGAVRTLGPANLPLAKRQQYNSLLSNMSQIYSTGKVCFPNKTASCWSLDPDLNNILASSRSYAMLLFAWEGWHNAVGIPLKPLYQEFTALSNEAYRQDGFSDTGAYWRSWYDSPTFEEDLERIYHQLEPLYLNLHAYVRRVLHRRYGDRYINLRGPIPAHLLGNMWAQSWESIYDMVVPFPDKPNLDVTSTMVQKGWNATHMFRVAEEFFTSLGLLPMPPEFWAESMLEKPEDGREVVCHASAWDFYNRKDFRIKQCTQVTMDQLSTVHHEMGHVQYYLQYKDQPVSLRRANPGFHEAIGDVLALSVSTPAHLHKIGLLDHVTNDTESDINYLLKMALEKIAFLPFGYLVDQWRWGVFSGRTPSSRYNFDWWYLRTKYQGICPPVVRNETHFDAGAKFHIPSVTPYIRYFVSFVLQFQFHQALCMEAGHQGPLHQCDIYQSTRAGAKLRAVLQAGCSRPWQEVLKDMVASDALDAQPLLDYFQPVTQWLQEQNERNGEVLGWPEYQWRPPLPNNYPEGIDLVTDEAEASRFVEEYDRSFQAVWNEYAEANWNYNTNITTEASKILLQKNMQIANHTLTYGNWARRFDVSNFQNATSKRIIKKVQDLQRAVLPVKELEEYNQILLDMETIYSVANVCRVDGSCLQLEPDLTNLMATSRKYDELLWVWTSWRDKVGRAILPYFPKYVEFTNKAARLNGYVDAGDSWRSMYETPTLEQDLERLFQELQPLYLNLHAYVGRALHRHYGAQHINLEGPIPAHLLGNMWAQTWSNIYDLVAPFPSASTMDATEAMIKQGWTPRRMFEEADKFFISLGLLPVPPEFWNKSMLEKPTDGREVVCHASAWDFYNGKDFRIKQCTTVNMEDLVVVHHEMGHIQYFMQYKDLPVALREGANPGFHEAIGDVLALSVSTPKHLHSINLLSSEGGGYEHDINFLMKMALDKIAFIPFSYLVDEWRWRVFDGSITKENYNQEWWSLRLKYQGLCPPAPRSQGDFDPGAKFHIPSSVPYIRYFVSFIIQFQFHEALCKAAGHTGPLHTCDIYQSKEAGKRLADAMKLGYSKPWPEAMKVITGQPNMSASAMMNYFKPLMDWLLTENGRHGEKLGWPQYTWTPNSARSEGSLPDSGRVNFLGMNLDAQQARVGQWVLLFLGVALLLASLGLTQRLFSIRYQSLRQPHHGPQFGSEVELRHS
Description: The ACEi activity was measured by employing FAPGG as the substrate with the following modifications reported by Zhao et al. ([18]). In brief, the initial assay volume consisted of 50 μL of the substrate (3 mM), 50 μL of the ACE enzyme solution containing 1.25 mU of declared enzyme activity, and 50 μL of assay sample. All these solutions were incubated for 30 min at 37°C in a water bath first without mixing and then for an additional 30 min after mixing. ACE activity was stopped by 150 μL of glacial acetic acid. After that, the reaction mixture was separated by HPLC at 228 nm to determine the hippuric acid (HA) content produced due to ACE activity on the substrate. The control reaction mixture contained 50 μL of buffer instead of the assay sample and the control was expected to liberate the maximum amount of HA from the substrate due to uninhibited ACE activity. The percent inhibition of ACE activity was calculated as follows:
Inhibition activity(%)=[(HAcontrol−HAsample)/HAcontrol]×100%.
The IC50 value is the concentration of peptide inhibiting 50% activity of ACE.

HUVECs [5] = test: NO production in HUVECs (assay kit); assay type: cell-based, human; details: for NO content in NE-treated HUVECs: peptide 200 μM plus NE, NE alone 18.59 ± 0.82 μM; for NO level in HUVECs: peptide 200 μM, 24 h, control 33.68 ± 0.96 μM, mean ± SD, n = 3, SD
Description: (§4) HUVECs were cultured in DMEM supplemented with 100 µg/mL streptomycin, 10% FBS (v/v), and 100 U/mL penicillin at 37°C in a humidified 5% CO2 atmosphere for 24 h.
(§5) After treating with ACEi peptides (TRP3, TRP6, TRP9, or TRP12, respectively) for 24 h, NO and ET-1 contents were separately determined by employing human NO and ET-1 assay kit as per manufactures’ protocol ([18]).

HUVECs [6] = test: ET-1 secretion in HUVECs (assay kit); assay type: cell-based, human; details: for ET-1 content in NE-treated HUVECs: peptide 200 μM plus NE, NE alone 73.57 ± 3.09 pg./mL; for ET-1 content in HUVECs: peptide 200 μM, control 55.37 ± 2.53 pg./mL, mean ± SD, n = 3, SD
Description: as §4, §5

H2O2-induced HUVECs [7] = test: ROS level in H2O2-induced HUVECs, DCFH2-DA assay; assay type: cell-based, human; details: 200 μM pretreatment, 300 μM H2O2, model 146.6 ± 3.81%, mean ± SD, n = 3
Description: as §2, §3

H2O2-induced HUVECs [8] = test: SOD activity in H2O2-induced HUVECs (assay kit); assay type: cell-based, human; details: 200 μM pretreatment, 300 μM H2O2, model 108.57 ± 7.56, mean ± SD, n = 3
Description: as §2, §3

H2O2-induced HUVECs [9] = test: GSH-Px activity in H2O2-induced HUVECs (assay kit); assay type: cell-based, human; details: 200 μM pretreatment, 300 μM H2O2, model 26.95 ± 1.09, mean ± SD, n = 3
Description: as §2, §3

HUVECs [10] = test: Viability of HUVECs, MTT method; assay type: cell-based, human
Description: as §4, §1

| Compound | cell viability of H2O2-induced HUVECs (H2O2-induced HUVECs [1]) [%] | NO content (H2O2-induced HUVECs [2]) [µM] | MDA content (H2O2-induced HUVECs [3]) [nmol/mg prot] | total apoptosis ratio (H2O2-induced HUVECs [4]) [% control] | viability of HUVECs (H2O2-induced HUVECs [1]; H2O2 300 μM alone (model establishment)) [%] | ACEi rate (ACEi activity) (ACE) [%] | NO content in NE-treated HUVECs (HUVECs [5]) [µM] | NO level in HUVECs (HUVECs [5]) [µM] | ET-1 content in NE-treated HUVECs (HUVECs [6]) [pg/mL] | ET-1 content in HUVECs (HUVECs [6]) [pg/mL] | ROS level (H2O2-induced HUVECs [7]) [% control] | SOD activity (H2O2-induced HUVECs [8]) [U/mg prot] | GSH-Px activity (H2O2-induced HUVECs [9]) [U/mg prot] | cell viability (HUVECs [10]; 300 μM, 24 h, MTT, % control, mean ± SD, n = 3) [%] | cell viability (HUVECs [10]; 300 µM, SD) [%] |
| --- | --- | --- | --- | --- | --- | --- | --- | --- | --- | --- | --- | --- | --- | --- | --- |
| N[C@@H](CCC(=O)N[C@@H](CS)C(=O)NCC(=O)O)C(=O)O [GSH, Glutathione, reference compound] | 78.33 ± 3.08 | 26.98 ± 1.05 | 17.83 ± 0.87 | 124.52 ± 4.82 | – | – | – | – | – | – | – | – | – | – | – |
| OO [H2O2] | – | – | – | – | 49.65 ± 1.68 | – | – | – | – | – | – | – | – | – | – |
| CC[C@H](C)[C@H](N)C(=O)N[C@@H](CCCCN)C(=O)N[C@@H](CO)C(=O)N[C@@H](Cc1c[nH]c2ccccc12)C(=O)O [TRP6, Ile-Lys-Ser-Trp] (H-IKSW-OH; N-terminus and C-terminus assumed) | – | 21.26 ± 0.59 | 20.52 ± 0.92 | 171.21 ± 6.92 | – | 75.41 ± 2.56 | 26.51 ± 1.06 | 46.25 ± 1.39 | 55.27 ± 2.19 | 44.68 ± 1.69 | 127.5 ± 4.32 | 160.02 ± 9.04 | 42.35 ± 1.86 | – | – |
| CSCC[C@H](NC(=O)[C@H](Cc1c[nH]cn1)NC(=O)[C@H](CO)NC(=O)[C@@H](N)Cc1ccc(O)cc1)C(=O)O [TRP9, Tyr-Ser-His-Met] (H-YSHM-OH) | 67.85 ± 3.05 | 23.64 ± 0.82 | 19.88 ± 0.75 | 135.37 ± 4.28 | – | 83.49 ± 3.42 | 28.79 ± 0.78 | 50.34 ± 1.45 | 53.27 ± 2.34 | 41.26 ± 2.09 | 122.4 ± 4.47 | – | 45.36 ± 2.07 | 91.27 ± 4.05 | – |
| H-WGESF-OH [TRP3, Trp-Gly-Glu-Ser-Phe] | – | 20.38 ± 0.67 | 21.76 ± 0.94 | 173.12 ± 5.11 | – | 69.54 ± 3.09 | 23.69 ± 1.18 | 46.52 ± 1.29 | 59.74 ± 2.42 | 46.87 ± 2.03 | 128.7 ± 5.2 | 154.58 ± 3.94 | 38.46 ± 1.25 | – | 86.72 ± 4.45 |
| WSPGF [TRP12, Trp-Ser-Pro-Gly-Phe] | – | 22.09 ± 0.81 | 21.08 ± 0.92 | 162.08 ± 5.94 | – | 78.24 ± 2.81 | 26.79 ± 1.34 | 46.32 ± 2.03 | 54.71 ± 2.57 | 45.28 ± 1.88 | 123.7 ± 3.21 | – | 39.75 ± 1.63 | – | – |
